Laboratory results reported in patent publication US20110230493A1, “1-OXA-8-Azaspiro [4,5] Decabe-8-Carboxamide Compounds as FAAH Inhibitors” (Pfizer Inc., priority 2008, published 2011).

Experiments:
human FAAH = target: T1, human FAAH (Homo sapiens, UniProt O00519); assay: FAAH assay, human FAAH enzyme inactivation (kinact/Ki); assay type: biochemical; details: oleamide 50 μM, 30° C.; for hFAAH kinact/Ki: in vitro, pH 7.4; for kinact/KI: pH 7.4, in vitro, read-out: hFAAH kinact/Ki
T1 construct: made in house; host or cells: E. coli
T1 sequence (O00519 1-579): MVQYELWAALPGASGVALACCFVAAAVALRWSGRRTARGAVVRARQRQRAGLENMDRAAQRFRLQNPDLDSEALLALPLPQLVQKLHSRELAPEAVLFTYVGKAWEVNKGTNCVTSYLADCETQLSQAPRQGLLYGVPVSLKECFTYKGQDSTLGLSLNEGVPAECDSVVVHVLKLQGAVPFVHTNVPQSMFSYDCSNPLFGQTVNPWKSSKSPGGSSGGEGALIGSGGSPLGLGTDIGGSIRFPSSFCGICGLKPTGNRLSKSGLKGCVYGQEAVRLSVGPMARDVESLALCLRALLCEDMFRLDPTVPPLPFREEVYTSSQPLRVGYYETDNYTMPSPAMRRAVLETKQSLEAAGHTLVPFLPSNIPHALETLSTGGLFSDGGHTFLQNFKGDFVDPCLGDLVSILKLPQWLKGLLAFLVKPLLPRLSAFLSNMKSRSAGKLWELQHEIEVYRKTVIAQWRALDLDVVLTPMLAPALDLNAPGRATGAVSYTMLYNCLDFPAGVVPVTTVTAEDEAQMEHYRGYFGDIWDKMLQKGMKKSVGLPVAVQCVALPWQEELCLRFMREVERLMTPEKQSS
Procedure, shortened: (§1)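 Oleamide hydrolysis by 1-4 nM purified E. coli-expressed FAAH (substrate 50 μM = Km) coupled to GDH/NADH, pH 7.4 phosphate, 7.5% DMSO and EtOH, 30° C; A340 followed 90 min. kobs from mono-exponential fits; kinact/Ki from kobs-versus-concentration slope, multiplied by two.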

rat FAAH = target: T2, rat FAAH (Rattus norvegicus, UniProt P97612); assay: FAAH assay, rat FAAH enzyme inactivation (kinact/Ki); assay type: biochemical; details: oleamide 50 μM, 30° C.; for rFAAH kinact/Ki: in vitro, pH 7.4; for kinact/KI: pH 7.4, in vitro, read-out: rFAAH kinact/Ki
T2 construct: made in house; host or cells: E. coli
T2 sequence (P97612 1-579): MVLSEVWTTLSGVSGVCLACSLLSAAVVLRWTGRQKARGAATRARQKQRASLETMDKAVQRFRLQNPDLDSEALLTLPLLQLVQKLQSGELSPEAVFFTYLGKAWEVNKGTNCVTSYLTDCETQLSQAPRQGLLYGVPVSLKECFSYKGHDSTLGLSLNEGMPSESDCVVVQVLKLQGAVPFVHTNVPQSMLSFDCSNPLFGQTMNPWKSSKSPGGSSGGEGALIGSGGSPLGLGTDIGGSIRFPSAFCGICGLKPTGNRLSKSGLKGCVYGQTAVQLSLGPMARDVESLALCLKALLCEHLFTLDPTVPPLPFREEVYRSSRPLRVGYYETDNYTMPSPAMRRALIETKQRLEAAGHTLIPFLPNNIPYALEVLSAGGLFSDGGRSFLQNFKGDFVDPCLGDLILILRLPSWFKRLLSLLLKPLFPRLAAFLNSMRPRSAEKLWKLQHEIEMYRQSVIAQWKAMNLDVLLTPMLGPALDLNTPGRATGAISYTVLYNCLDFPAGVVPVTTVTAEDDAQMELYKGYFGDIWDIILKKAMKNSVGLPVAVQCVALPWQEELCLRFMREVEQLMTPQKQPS
Procedure, shortened: as §1

Male Sprague-Dawley Rats = assay: In vivo Complete Freund's Adjuvant (CFA) efficacy assay, inhibition of allodynia; parameters: species or system rat; key: (+) indicates the test compound was determined to be efficacious at 3 mpk, oral dosing; (−) indicates the test compound was determined to not be efficacious at 3 mpk, oral dosing; details: 3 mpk, oral dosing; PWT four hours postdose; p < 0.05 vs vehicle group
Method: For additional information on the CFA efficacy assay, see Jayamanne et al., Brit. J. Pharmacol. 2006, 147, 281-288. Experiments were performed on adult Male Sprague-Dawley Rats (200 g-250 g). Inflammation was induced in the left hindpaw of the rat by an intra-plantar injection of 150 uL Complete Freund's Adjuvant (CFA) (SIGMA F5881). The CFA injection immediately induces local inflammation, paw swelling, and pain that persists for at least two weeks post-injection. Baseline paw withdrawal threshold (PWT) was measured to determine the percent inhibition of allodynia using a set of Von Frey Hairs on day 4 post injection as illustrated by the Dixon Up and Down Method (W. J. Dixon, Ann. Rev. Pharmacol. Toxicol. 1980, 20:441-462). […] Following Dose administration PWT threshold was evaluated again at four hours postdose. The Sprague-Dawley rats used in this assay were purchased from Harlan, 8520 Allison Pointe Blvd., Indianapolis, Ind., 46250, U.S.A. Sprague-Dawley rats are an outbred breed of albino rats first produced by the Sprague Dawley farms in Madison, Wis., U.S.A.
Percent Inhibition of Allodynia was determined by the formula: […]
ΔPWT measurements were averaged for each treatment group and statistical comparisons between groups were made using ANOVA and Dunnett's two-tailed test. […]

| Structure (SMILES) | hFAAH kinact/Ki (human FAAH) | rFAAH kinact/Ki (rat FAAH) | CFA Efficacy (Male Sprague-Dawley Rats) | kinact/KI (human FAAH) | kinact/KI (rat FAAH) |
| --- | --- | --- | --- | --- | --- |
| Cc1noc(NC(=O)N2CCC3(CC2)CC(c2cccc(OC(F)(F)F)c2)CO3)c1C (single isomer, unassigned) [Example 34, N-(3,4-dimethylisoxazol-5-yl)-3-[3-(trifluoromethoxy)phenyl]-1-oxa-8-azaspiro[4.5]decane-8-carboxamide] | 1840 M⁻¹ s⁻¹ | 2610 M⁻¹ s⁻¹ | (+) |  |  |
| Cc1noc(NC(=O)N2CCC3(CC2)CC(c2cccc(Cl)c2)CO3)c1C (single isomer, unassigned) [Example 35, 3-(3-chlorophenol)-N-(3,4-dimethylisoxazol-5-yl)-1-oxa-8-azaspiro[4.5]decane-8-carboxamide] |  | 1560 M⁻¹ s⁻¹ | (+) | 2390 M⁻¹ s⁻¹ |  |
| Cc1noc(NC(=O)N2CCC3(CC2)CC(c2cccc(Cl)c2)CO3)c1C (single isomer, unassigned) [Example 36, 3-(3-chlorophenyl)-N-(3,4-dimethylisoxazol-5-yl)-1-oxa-8-azaspiro[4.5]decane-8-carboxamide] | 2590 M⁻¹ s⁻¹ | 3830 M⁻¹ s⁻¹ | (+) |  |  |
| Cc1noc(NC(=O)N2CCC3(CC2)CC(c2ccc(Cl)c(Cl)c2)CO3)c1C (single isomer, unassigned) [Example 37, 3-(3,4-dichlorophenyl)-N-(3,4-dimethylisoxazol-5-yl)-1-oxa-8-azaspiro[4.5]decane-8-carboxamide] | 4130 M⁻¹ s⁻¹ |  | (+) |  | 4540 M⁻¹ s⁻¹ |
| Cc1noc(NC(=O)N2CCC3(CC2)CC(c2cc(F)cc(Cl)c2)CO3)c1C (single isomer, unassigned) [Example 39, 3-(3-chloro-5-fluorophenyl)-N-(3,4-dimethylisoxazol-5-yl)-1-oxa-8-azaspiro[4.5]decane-8-carboxamide] |  | 1510 M⁻¹ s⁻¹ | (+) | 1810 M⁻¹ s⁻¹ |  |
| Cc1noc(NC(=O)N2CCC3(CC2)CC(c2ccc(OCc4ccccc4Cl)c(Cl)c2)CO3)c1C (single isomer, unassigned) [Example 43, 3-{3-chloro-4-[(2-chlorobenzyl)oxy]phenyl}-N-(3,4-dimethylisoxazol-5-yl)-1-oxa-8-azaspiro[4.5]decane-8-carboxamide] | 3620 M⁻¹ s⁻¹ | 5870 M⁻¹ s⁻¹ | (+) |  |  |
| Cc1noc(NC(=O)N2CCC3(CC2)CC(c2ccc(OCc4ccccc4Cl)c(Cl)c2)CO3)c1C (single isomer, unassigned) [Example 44, 3-{3-chloro-4-[(2-chlorobenzyl)oxy]phenyl}-N-(3,4-dimethylisoxazol-5-yl)-1-oxa-8-azaspiro[4.5]decane-8-carboxamide] | 1330 M⁻¹ s⁻¹ | 1950 M⁻¹ s⁻¹ | (+) |  |  |
| Cc1noc(NC(=O)N2CCC3(CC2)CC(c2ccc(OCc4cccc(Cl)c4)c(Cl)c2)CO3)c1C (single isomer, unassigned) [Example 45, 3-{3-chloro-4-[(3-chlorobenzyl)oxy]phenyl}-N-(3,4-dimethylisoxazol-5-yl)-1-oxa-8-azaspiro[4.5]decane-8-carboxamide] |  |  | (+) | 6240 M⁻¹ s⁻¹ | 7130 M⁻¹ s⁻¹ |
| Cc1noc(NC(=O)N2CCC3(CC2)CC(c2ccc(OCc4cccc(Cl)c4)c(Cl)c2)CO3)c1C (single isomer, unassigned) [Example 46, 3-{3-chloro-4-[(3-chlorobenzyl)oxy]phenyl}-N-(3,4-dimethylisoxazol-5-yl)-1-oxa-8-azaspiro[4.5]decane-8-carboxamide] | 4490 M⁻¹ s⁻¹ | 6920 M⁻¹ s⁻¹ | (+) |  |  |
| CCc1noc(NC(=O)N2CCC3(CC2)CC(c2ccc(Cl)c(Cl)c2)CO3)c1C (single isomer, unassigned) [Example 68, 3-(3,4-dichlorophenyl)-N-(3-ethyl-4-methylisoxazol-5-yl)-1-oxa-8-azaspiro[4.5]decane-8-carboxamide] |  |  | (+) | 1920 M⁻¹ s⁻¹ | 3030 M⁻¹ s⁻¹ |
| Cc1noc(NC(=O)N2CCC3(CC2)CC(c2noc(-c4ccc(OC(F)(F)F)cc4)n2)CO3)c1C (single isomer, unassigned) [Example 72, N-(3,4-dimethylisoxazol-5-yl)-3-{5-[4-(trifluoromethoxy)phenyl]-1,2,4-oxadiazol-3-yl}-1-oxa-8-azaspiro[4.5]decane-8-carboxamide] |  |  | (+) | 4250 M⁻¹ s⁻¹ | 1500 M⁻¹ s⁻¹ |
| Cc1noc(NC(=O)N2CCC3(CC2)CC(c2noc(-c4ccc(OC(F)(F)F)cc4)n2)CO3)c1C (single isomer, unassigned) [Example 73, N-(3,4-dimethylisoxazol-5-yl)-3-{5-[4-(trifluoromethoxy)phenyl]-1,2,4-oxadiazol-3-yl}-1-oxa-8-azaspiro[4.5]decane-8-carboxamide] | 2150 M⁻¹ s⁻¹ | 1340 M⁻¹ s⁻¹ | (+) |  |  |
| Cc1noc(NC(=O)N2CCC3(CC2)CC(c2noc(-c4ccc(C(F)(F)F)cc4)n2)CO3)c1C (single isomer, unassigned) [Example 75, N-(3,4-dimethylisoxazol-5-yl)-3-{5-[4-(trifluoromethyl)phenyl]-1,2,4-oxadiazol-3-yl}-1-oxa-8-azaspiro[4.5]decane-8-carboxamide] |  |  | (+) | 3570 M⁻¹ s⁻¹ | 1610 M⁻¹ s⁻¹ |
| Cc1noc(NC(=O)N2CCC3(CC2)CC(c2noc(-c4ccc(C(F)(F)F)cc4)n2)CO3)c1C (single isomer, unassigned) [Example 76, N-(3,4-dimethylisoxazol-5-yl)-3-{5-[4-(trifluoromethyl)phenyl]-1,2,4-oxadiazol-3-yl}-1-oxa-8-azaspiro[4.5]decane-8-carboxamide] | 3120 M⁻¹ s⁻¹ | 1150 M⁻¹ s⁻¹ | (+) |  |  |
| Cn1nnnc1NC(=O)N1CCC2(CC1)CC(c1cccc(OC(F)(F)F)c1)CO2 (single isomer, unassigned) [Example 77, N-(1-methyl-1H-tetrazol-5-yl)-3-[3-(trifluoromethoxy)phenyl]-1-oxa-8-azaspiro[4.5]decane-8-carboxamide] |  |  | (+) | 7110 M⁻¹ s⁻¹ | 4560 M⁻¹ s⁻¹ |
